Data set [1] concerns the target T1, human carbonic anhydrase-2 (Homo sapiens, UniProt P00918).
T1 construct: purchased Sigma C6165
Kind of data set: Carbonic anhydrase assay, carbonic anhydrase-2 (Method 6). The data set is classed as biochemical. The following applies: read-out: Inhibition of Carbonic anhydrase-2 IC50. As to the method:
6. Carbonic Anhydrase Assay
The principle of the assay is based on the hydrolysis of 4-nitrophenyl acetate by carbonic anhydrases (Pocker & Stone, Biochemistry, 1967, 6, 668), with subsequent photometric determination of the dye product 4-nitrophenolate at 400 nm by means of a 96-channel spectral photometer.
2 μL of the test compounds, dissolved in DMSO (100-fold final concentration), in a concentration range of 0.03-10 μmol/L (final), was pipetted as quadruplicates into the wells of a 96-hole microtiter plate. Wells that contained the solvent without test compounds were used as reference values (1. Wells without carbonic anhydrase for correction of the non-enzymatic hydrolysis of the substrate, and 2. Wells with carbonic anhydrase for determining the activity of the non-inhibited enzyme).
188 μL of assay buffer (10 mmol/L of Tris/HCl, pH 7.4, 80 mmol/L of NaCl), with or without 3 units/well of carbonic anhydrase-1 [=human carbonic anhydrase-1 (Sigma, #C4396)] in order to determine carbonic anhydrase-1 inhibition or 3 units/well of carbonic anhydrase-2 [=human carbonic anhydrase-2 (Sigma, #C6165)] for measuring carbonic anhydrase-2 inhibition, was pipetted into the wells of the microtiter plate.

Data set [2] is described as follows: Caco-2 permeation assay (Method 5). Type of data set: in vitro ADME. The note with it: human, Caco-2, pH 7.2, 2 μM test compound; for Papp A→B at 2 h, 2 µM: read-out: Papp A-B (Mari); for Papp B→A at 2 h, 2 µM: read-out: Papp B-A (Mari); for efflux ratio at 2 h, 2 µM: Papp B-A / Papp A-B. As to the method: 5. Caco-2 Permeation Assay:
Caco-2 cells (purchased from DSMZ Braunschweig, Germany) were seeded at a density of 4.5×10^4 cells per well on 24 well insert plates, 0.4 μm pore size, and grown for 15 days in DMEM medium supplemented with 10% fetal bovine serum, 1% GlutaMAX (100×, GIBCO), 100 U/mL penicillin, 100 μg/mL streptomycin (GIBCO) and 1% non essential amino acids (100×). Cells were maintained at 37° C. in a humidified 5% CO2 atmosphere. Medium was changed every 2-3 day. Before running the permeation assay, the culture medium was replaced by a FCS-free hepes-carbonate transport buffer (pH 7.2). For assessment of monolayer integrity the transepithelial electrical resistance (TEER) was measured. Test compounds were predissolved in DMSO and added either to the apical or basolateral compartment in final concentration of 2 μM in transport buffer. Before and after 2 h incubation at 37° C. samples were taken from both compartments. Analysis of compound content was done after precipitation with methanol by LC/MS/MS analysis. Permeability (Papp) was calculated in the apical to basolateral (A→B) and basolateral to apical (B→A) directions. The apparent permeability was calculated using following equation: Papp=(Vr/Po)(1/S)(P2/t)
Where Vr is the volume of medium in the receiver chamber, Po is the measured peak area or height of the test drug in the donor chamber at t=o, S the surface area of the monolayer, P2 is the measured peak area of the test drug in the acceptor chamber after 2 h of incubation, and t is the incubation time. The efflux ratio basolateral (B) to apical (A) was calculated by dividing the Papp B-A by the Papp A-B. In addition the compound recovery was calculated. The following reference compounds were used for the classification of the permeability class: Antipyrine, Pyrazosin, Verapamil, Fluvastatin, Cimetidine, Ranitidine, Atenolol, Sulfasalazine.
Background: Caco-2 monolayers are a common model of the intestinal barrier.

Data set [3] can be described thus: Equilibrium shake flask solubility assay, thermodynamic solubility in citrate buffer pH 4 (Method 4b). The data set is classed as physicochemical. The note with it: aqueous buffer, thermodynamic from solid; citrate buffer pH 4, 24 h, room temperature; read-out: Solubility in Citrate buffer pH4. As to the method:
4b) Thermodynamic Solubility in Citrate Buffer pH 4
Thermodynamic solubility was determined by an equilibrium shake flask method [Literature: Edward H. Kerns and Li Di (2008) Solubility Methods in: Drug-like Properties: Concepts, Structure Design and Methods, p 276-286. Burlington, Mass.: Academic Press].
A saturated solution of the drug was prepared and the solution was mixed for 24 h to ensure that equilibrium has been reached. The solution was centrifuged to remove the insoluble fraction and the concentration of the compound in solution was determined using a standard calibration curve.
To prepare the sample, 1.5 mg solid compound was weighed in a 4 ml glass vial. 1 ml Citrate buffer pH 4 was added. The suspension was put on a stirrer and mixed for 24 hrs at room temperature. The solution was centrifuged afterwards. To prepare the sample for the standard calibration, 0.6 mg solid sample was dissolved in 19 ml acetonitrile/water 1:1. After sonification the solution was filled up with acetonitrile/water 1:1 to 20 ml.
Sample and standards were quantified by HPLC with UV-detection. For each sample two injection volumes (5 and 50 μl) in triplicates were made. Three injection volumes (5 μl, 10 μl and 20 μl) were made for the standard.
Citrate buffer pH 4 (MERCK Art. 109435; 1 L buffer consisting of 11,768 g citric acid,
4,480 g sodium hydroxide, 1,604 g hydrogen chloride)
Chromatographic conditions were as follows:
HPLC column: Xterra MS C18 2.5 μm 4.6×30 mm
Injection volume: Sample: 3×5 μl and 3×50 μl
• Standard: 5 μl, 10 μl, 20 μl Flow: 1.5 ml/min Mobile phase: acidic gradient: • A: Water/0.01% TFA • B: Acetonitrile/0.01% TFA • 0 min: 95% A 5% B • 0-3 min: 35% A 65% B, linear gradient • 3-5 min: 35% A 65% B, isocratic • 5-6 min: 95% A 5% B, isocratic UV detector: wavelength near the absorption maximum (between 200 and 400 nm)
The areas of sample- and standard injections as well as the calculation of the solubility value (in mg/l) were determined by using HPLC software (Waters Empower 2 FR).

SMILES strings stand for the structures. Converted amounts (≈) assume the structure as drawn.

In the case of `COc1cc(F)ccc1-c1cc(Nc2cc(CS(C)(=N)=O)ccn2)ncn1` (racemic) [Example 1, (rac)-6-(4-Fluoro-2-methoxyphenyl)-N-{4-[(S-methylsulfonimidoyl)methyl]pyridin-2-yl}pyrimidin-4-amine], the IC50 (usually the concentration that gives 50% inhibition) in data set [1] is > 10 µM. In data set [2], the Papp A→B (commonly how fast a substance crosses the layer from the apical side) at 2 h, 2 µM stood at 2.6 ×10⁻⁶ cm/s; the Papp B→A (usually how fast a substance crosses the layer from the basolateral side) at 2 h, 2 µM was found to be 24.3 ×10⁻⁶ cm/s; the efflux ratio (commonly a quotient of directional permeabilities that is used to spot active efflux) at 2 h, 2 µM was 9.3.
`COc1cc(F)ccc1-c1cc(Nc2cc(CS(C)(=N)=O)cc(Cl)n2)ncn1` (racemic) [Example 4, (rac)-N-{6-Chloro-4-[(S-methylsulfonimidoyl)methyl]pyridin-2-yl}-6-(4-fluoro-2-methoxyphenyl)pyrimidin-4-amine]: the solubility (in general, how much of the substance goes into solution per volume) at 24 h in data set [3] was 15 µg/mL (≈ 35.6 µM).
With `COc1cc(F)ccc1-c1cc(Nc2cc(CS(C)(=N)=O)cc(C)n2)ncn1` (racemic) [Example 7, (rac)-6-(4-Fluoro-2-methoxyphenyl)-N-{6-methyl-4-[(S-methylsulfonimidoyl)methyl]pyridin-2-yl}pyrimidin-4-amine], the solubility at 24 h in data set [3] was 157 µg/mL (≈ 391 µM). For the same molecule, in data set [2], the Papp A→B at 2 h, 2 µM was found to be 3.9 ×10⁻⁶ cm/s; the Papp B→A at 2 h, 2 µM is 28.9 ×10⁻⁶ cm/s; the efflux ratio at 2 h, 2 µM worked out at 7.49.
For the molecule `COc1cc(F)ccc1-c1cc(Nc2cc(CS(C)(=N)=O)cc(C(F)(F)F)n2)ncn1` (racemic) [Example 10, (rac)-6-(4-Fluoro-2-methoxyphenyl)-N-{4-[(S-methylsulfonimidoyl)methyl]-6-(trifluoromethyl)pyridin-2-yl}pyrimidin-4-amine], in data set [3], the solubility at 24 h was 11 µg/mL (≈ 24.2 µM). Besides, in data set [2], the Papp A→B at 2 h, 2 µM was 4.5 ×10⁻⁶ cm/s; the Papp B→A at 2 h, 2 µM came to 20.6 ×10⁻⁶ cm/s; the efflux ratio at 2 h, 2 µM amounted to 4.58.

Values taken from patent US9650361B2, “N-(pyridin-2-yl)pyrimidin-4-amine derivatives containing a sulfoximine group” (BAYER PHARAM AKTIENGESELLSCHAFT, priority 2012, dated 2017).
